This note sets out measurements from publication PMC8637440, “Structural Modifications Yield Novel Insights Into the Intriguing Pharmacodynamic Potential of Anti-inflammatory Nitro-Fatty Acids” (Frontiers in Pharmacology, 2021).

In one data set the target is T1, 15-LO (Homo sapiens, UniProt P16050).
T1 construct: endogenous in cells; host or cells: eosinophils in human PMNL preparations
T1 sequence (P16050 1-662): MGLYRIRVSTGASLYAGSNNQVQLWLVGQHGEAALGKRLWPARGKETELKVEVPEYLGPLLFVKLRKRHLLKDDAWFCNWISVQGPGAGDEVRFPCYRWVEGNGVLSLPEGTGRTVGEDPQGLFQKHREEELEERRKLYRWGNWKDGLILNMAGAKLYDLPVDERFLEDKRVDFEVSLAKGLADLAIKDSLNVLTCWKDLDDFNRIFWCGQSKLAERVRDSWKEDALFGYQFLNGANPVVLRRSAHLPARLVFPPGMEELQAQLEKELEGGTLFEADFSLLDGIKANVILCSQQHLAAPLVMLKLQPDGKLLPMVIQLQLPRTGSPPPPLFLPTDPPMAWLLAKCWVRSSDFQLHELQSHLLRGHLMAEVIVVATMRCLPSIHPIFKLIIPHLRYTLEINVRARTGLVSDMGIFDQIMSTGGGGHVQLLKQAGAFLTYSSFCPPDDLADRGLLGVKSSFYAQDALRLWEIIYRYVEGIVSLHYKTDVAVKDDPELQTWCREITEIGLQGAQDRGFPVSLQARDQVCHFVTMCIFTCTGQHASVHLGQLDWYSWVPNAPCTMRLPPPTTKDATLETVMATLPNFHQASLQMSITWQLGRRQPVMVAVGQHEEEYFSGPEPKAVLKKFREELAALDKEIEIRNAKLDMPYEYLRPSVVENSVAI
The data set is described as follows: 15-HETE formation in intact PMNL preparations, A23187 + 20 µM AA. The class given is cell-based. As to conditions: 15 min preincubation, A23187 2.5 µM + 20 µM AA, n.i. = no inhibition observed; for PMNL (20 µM AA) 15-HETE IC50: intact PMNL; for IC50: PMNL (20 µM AA) 15-HETE IC50, intact PMNL. As to the method: Buffy coats from different donors of different blood types were commercially obtained from DRK Blutspendedienst Baden-Württemberg Institute Frankfurt. Donors have given their written consent. […] Following separation, the supernatant was transferred very gently to new 50-ml tubes containing lymphocyte separation medium (LSM) and centrifuged for 10 min at 800 ×g at RT with the centrifuge brake turned off. Afterwards, the supernatant was decanted carefully to discard the platelets and monocytes. The PMNL were washed with 1× PBS before the residual erythrocytes were lysed in two cycles: the cell pellet was resuspended with 10 ml H2O and vortexed for 45 s, and lysis was stopped with 40 ml 1 × PBS. After 10-min centrifugation at 200 ×g at RT, the cycle was repeated once. The supernatant was aspirated, the cell pellet resuspended in 5 ml PBS/glucose and initially separated PMNL preparations with different blood types were finally pooled to gain a sufficient number of cells. […] The enzyme was diluted in PBS/EDTA/ATP, transferred into 5-ml glass tubes, and stored on ice. […] The reaction was stopped by placing the glass tubes on ice. The supernatants were transferred to 1.5 ml reaction tubes and stored at −80°C before LC-MS (liquid chromatography and mass spectrometry) analysis of LTB4 and HETEs as described in 2.6 at the Institute of Pharmacology, Goethe University, University Hospital, Germany. The lipid mediators LTB4, hydroxyeicosatetraenoic acids, 5(S)-HETE, 12(S)-HETE, 15(S)-HETE and 20-HETE were analyzed using liquid chromatography tandem-mass spectroscopy (LC-MS/MS). The LC-MS/MS system consisted of a 5500 QTrap mass spectrometer (Sciex, Darmstadt, Germany), operating in negative ESI mode, an Agilent 1200 HPLC system (Agilent, Waldbronn, Germany) and an HTC Pal autosampler (Chromtech, Idstein, Germany). Sample extraction of LTB4 and HETEs were performed using liquid-liquid extraction: 200 µl of the sample were gently mixed with 20 µl of methanol and 20 µl of internal standard solution and extracted twice with 600 µl ethyl acetate. […] Working solutions of all analytes were prepared in methanol containing 0.1% BHT. The calibration standards were prepared by further dilution of the working standards. […] The residues were reconstituted in 50 µl of methanol:water:BHT (50:50:10^−4, v/v/v) prior to injection into the LC-MS/MS system. Chromatographic separation was achieved using a Gemini NX C18 column (150 mm × 2 mm ID, 5 µm, Phenomenex, Aschaffenburg, Germany) with a precolumn of the same material. A linear gradient was employed at a flow rate of 0.5 ml/min and a total run time of 17.5 min. Mobile phases were A water:ammonia (100:0.05, v/v) and B acetonitrile:ammonia (100:0.05, v/v). […] All data were acquired using Analyst software v1.6.2 and quantitation was performed by MultiQuant software v3.0 (both Sciex, Darmstadt, Germany) using the internal standard method (isotope-dilution mass spectrometry). Calibration curves were calculated by linear regression with 1/x.

The next data set deals with HCT-116 cells. The data set is described as follows: WST-1 cell viability assay, HCT-116. It is filed as cell-based, human. As to conditions: for IC50: Homo sapiens, HCT-116; for cytotoxic potency higher compared to 9NOA: HCT-116 and HT-29 cells. As to the method: Cell viability was analyzed with the WST-1 assay based on the cleavage of the stable tetrazolium salt WST-1 by the mitochondrial reductase system. Cells were seeded in the appropriate densities in a clear 96-well plate and settled overnight at 37°C in 5% CO2. The next day, the cells were treated with NFA or the substances of interest (≤0.1% dimethyl sulfoxide [DMSO]) and incubated for 24 or 48 h at 37°C in 5% CO2. Cell viability was analyzed by adding 10 µl WST-1 solution (Roche, Basel, Switzerland) and subsequently incubating the cells at 37°C for another 30–40 min. Absorbance was measured at 450 nm with a control wavelength at 620 nm using a plate reader.
Besides targeting the NF-κB pathway, the anti-tumorigenic effects of NFA can be observed by a reduction of colorectal cancer cell viability. […] Again, the cytotoxic effects of NFA were determined in HCT-116 and HT-29 colorectal cancer cells in the present study. […] HCT-116 cells were treated with increasing concentrations of NFA differing in chain length and Michael acceptor position for 24 h, and cell viability was determined using the WST-1 assay. Due to their prolonged cell division rate and their lack of sensitivity towards NFA ([Kühn et al., 2018]), HT-29 cells were treated for 48 h to gain improved NFA activity.

The mark [1] stands for this setting: WST-1 cell viability, 24 h, n.i. = no inhibition observed.

Structures are written as SMILES. Values joined by “and” are separate entries in the source; they are usually repeats but may differ in a detail not shown here. Identical values can stand only once.

Take `CCC=C(CCCCCCCC(=O)O)[N+](=O)[O-]` [12.9.9, 9-nitro-dodec-9-enoic acid]: at 15-LO, the “PMNL (20 µM AA) 15-HETE IC50” value is reported as “n.i”. The compound also showed an IC50 in the data set on HCT-116 cells (setting [1]) of 23.1 ± 1.1 µM.
For `CCCCC=C(CCCCCCCC(=O)O)[N+](=O)[O-]` [14.9.9, 9-nitro-tetradec-9-enoic acid] the same measures were “n.i” and 16.8 ± 1.1 µM.
For `CCCCCCC=C(CCCCCCCC(=O)O)[N+](=O)[O-]` [16.9.9, 9-nitro-hexadec-9-enoic acid] the same measures were “n.i” and 10.5 ± 1.1 µM.
For the compound `CCCCCCCCCCCCCC=C(CCC(=O)O)[N+](=O)[O-]` [18.4.4, 4-nitro-octadec-4-enoic acid], the IC50 was 7.7 ± 1.2 µM on 15-LO and 18.6 ± 1.1 µM in the data set on HCT-116 cells (setting [1]).
For `CCCCCCCCCCCCC=C(CCCC(=O)O)[N+](=O)[O-]` [18.5.5, 5-nitro-octadec-5-enoic acid] the same measures were 8.9 ± 1.2 µM and 11.6 ± 1.1 µM.
For `CCCCCCCCCCCC=C(CCCCC(=O)O)[N+](=O)[O-]` [18.6.6, 6-nitro-octadec-6-enoic acid] the same measures were 14.8 ± 1.1 µM and 7.6 ± 1.1 µM.
Take `CCCCCCCCCCCC(=CCCCCC(=O)O)[N+](=O)[O-]` [18.6.7, 7-nitro-octadec-6-enoic acid]: the IC50 on 15-LO turned out to be 17.3 ± 1.1 µM; with HCT-116 cells (setting [1]), 8.1 ± 1.1 µM.
Consider `CCCCCCCCCCC=C(CCCCCC(=O)O)[N+](=O)[O-]` [18.7.7, 7-nitro-octadec-7-enoic acid], for which the values for the IC50 at 15-LO and in the data set with HCT-116 cells (setting [1]) were 7.6 ± 1.1 µM and 2.7 ± 1.1 µM, respectively. In the data set on HCT-116 cells, the “cytotoxic potency higher compared to 9NOA” value was over 2 fold.
For `CCCCCCCCCC=C(CCCCCCC(=O)O)[N+](=O)[O-]` [18.8.8, 8-nitro-octadec-8-enoic acid] the same measures were 16 ± 1.1 µM, 2.1 ± 1.1 µM and over 2 fold.
For the compound `CCCCCCCCCC(=CCCCCCCC(=O)O)[N+](=O)[O-]` [18.8.9, 9-nitro-octadec-8-enoic acid], the half-inhibitory concentration (IC50) on 15-LO worked out at 23.4 ± 1.3 µM; with HCT-116 cells (setting [1]), 4.6 ± 1.1 µM.
Turning to `CCCCCCCCC=C(CCCCCCCC(=O)O)[N+](=O)[O-]` [18.9.9, 9-nitro-octadec-9-enoic acid], the IC50 is 17.6 µM and 20.4 µM on 15-LO; 6.4 ± 1.2 µM with HCT-116 cells (setting [1]).
As to `CCCCCCCCC(=CCCCCCCCC(=O)O)[N+](=O)[O-]` [18.9.10, 10-nitro-octadec-9-enoic acid], the concentration for half-maximal inhibition (IC50) stood at 20.5 ± 1.3 µM at 15-LO and 13.5 ± 1.1 µM with HCT-116 cells (setting [1]).
For `CCCCCCCC=C(CCCCCCCCC(=O)O)[N+](=O)[O-]` [18.10.10, 10-nitro-octadec-10-enoic acid] the same measures were 19.6 ± 1.1 µM and 13.6 ± 1.1 µM.
Turning to `CCCCCCC=C(CCCCCCCCCC(=O)O)[N+](=O)[O-]` [18.11.11, 11-nitro-octadec-11-enoic acid], the IC50 was determined as 26 ± 1.3 µM on 15-LO and 16 ± 1.1 µM in the data set on HCT-116 cells (setting [1]).
For `CCCCCCCCCCC=C(CCCCCCCC(=O)O)[N+](=O)[O-]` [20.9.9, 9-nitro-eicos-9-enoic acid] the same measures were 21.2 ± 1.1 µM and 5.4 ± 1.1 µM.
For the compound `CCCCCCCC/C=C\CCCCCCCC(=O)O` [OA, oleic acid, reference compound], the “PMNL (20 µM AA) 15-HETE IC50” value at 15-LO is “not affected and n.i”. In addition, the “HCT-116 (24 h) IC50” value in the data set with HCT-116 cells (setting [1]) was “failed to induce cytotoxic effects and n.i”.
